Source: patent US20240358693A1, “METHODS OF TREATING PAIN” (Aisa Pharma, Inc., priority 2023, published 2024)

System: participants with SSc-RP
Test: Average severity of weekly RP attacks (VAS 0-10 cm scale)
Format: in vivo, human
From the text: The absolute change in average severity of weekly RP attacks (VAS 0-10 cm scale) from baseline to the end of each Dosing Period was and will be a secondary outcome variable. The sponsor-developed participant-informed diary will be used to record data. Average severity of weekly RP attacks is defined as the total severity scores of RP attacks divided by total number of RP attacks within the last 7 days of each dosing period. Total severity scores of RP attacks during the last 7 days of screening period divided by the total number of RP attacks will be used as baseline for the analysis of all periods. The variable will be calculated similar to frequency data as before.

[1] = Excluding Outliers, Tadalafil 5 mg, second Baseline RCS subgroup block (not named), ITT Part A
[2] = Excluding Outliers, Tadalafil 5 mg, second Baseline RCS subgroup block (not named), ITT Part A, score 0-10
[3] = Tadalafil 5 mg, n=1, Excluding Outliers, ITT Population - Part A
[4] = Tadalafil 5 mg, n=2, ITT Population - Part A
[5] = Tadalafil 5 mg, n=2, by Baseline RCS, second subgroup, ITT Population - Part A
[6] = Tadalafil 5 mg, Excluding Outliers, ITT Population - Part A
[7] = Tadalafil 5 mg, Excluding Outliers, by Baseline RCS, second subgroup, ITT Population - Part A
[8] = Tadalafil 5 mg, ITT Population - Part A
[9] = Tadalafil 5 mg, second Baseline RCS subgroup block (not named), ITT Part A
[10] = Tadalafil 5 mg, second Baseline RCS subgroup block (not named), ITT Part A, score 0-10

CN1CC(=O)N2[C@H](c3ccc4c(c3)OCO4)c3[nH]c4ccccc4c3C[C@@H]2C1=O [Tadalafil, tadalafil]
−20.69%: Average Severity of Weekly RP Attacks (All Attacks), Percent Change from Baseline, Mean [1] | Average Severity of Weekly RP Attacks (All Attacks), Percent Change from Baseline, Median [1] | Average Severity of Weekly RP Attacks (All Attacks), Percent Change from Baseline, Mean [6] | Average Severity of Weekly RP Attacks (All Attacks), Percent Change from Baseline, Median [6]
−0.60: Average Severity of Weekly Symptomatic RP Attacks, Change from Baseline, Mean [4] | Average Severity of Weekly Symptomatic RP Attacks, Change from Baseline, Median [4] | Average Severity of Weekly Symptomatic RP Attacks, Change from Baseline, Mean [5] | Average Severity of Weekly Symptomatic RP Attacks, Change from Baseline, Median [5]
−0.47: Average Severity of Weekly RP Attacks (All Attacks), Change from Baseline, Mean [8] | Average Severity of Weekly RP Attacks (All Attacks), Change from Baseline, Median [8] | Average Severity of Weekly RP Attacks (All Attacks), Change from Baseline, Mean [10] | Average Severity of Weekly RP Attacks (All Attacks), Change from Baseline, Median [10]
−22.01%: Average Severity of Weekly Symptomatic RP Attacks, Percent Change from Baseline, Mean [3] | Average Severity of Weekly Symptomatic RP Attacks, Percent Change from Baseline, Median [3] | Average Severity of Weekly Symptomatic RP Attacks, Percent Change from Baseline, Mean [7] | Average Severity of Weekly Symptomatic RP Attacks, Percent Change from Baseline, Median [7]
−8.97%: Average Severity of Weekly RP Attacks (All Attacks), Percent Change from Baseline, Mean [8] | Average Severity of Weekly RP Attacks (All Attacks), Percent Change from Baseline, Median [8] | Average Severity of Weekly RP Attacks (All Attacks), Percent Change from Baseline, Mean [9] | Average Severity of Weekly RP Attacks (All Attacks), Percent Change from Baseline, Median [9]
7.08: Average Severity (0-10) of Weekly Symptomatic RP Attacks, Mean [4] | Average Severity (0-10) of Weekly Symptomatic RP Attacks, Median [4] | Average Severity (0-10) of Weekly Symptomatic RP Attacks, Mean [5] | Average Severity (0-10) of Weekly Symptomatic RP Attacks, Median [5]
−1.19: Average Severity of Weekly RP Attacks (All Attacks), Change from Baseline, Mean [2] | Average Severity of Weekly RP Attacks (All Attacks), Change from Baseline, Median [2] | Average Severity of Weekly RP Attacks (All Attacks), Change from Baseline, Mean [6] | Average Severity of Weekly RP Attacks (All Attacks), Change from Baseline, Median [6]
−10.43%: Average Severity of Weekly Symptomatic RP Attacks, Percent Change from Baseline, Mean [4] | Average Severity of Weekly Symptomatic RP Attacks, Percent Change from Baseline, Median [4] | Average Severity of Weekly Symptomatic RP Attacks, Percent Change from Baseline, Mean [5] | Average Severity of Weekly Symptomatic RP Attacks, Percent Change from Baseline, Median [5]
−1.32: Average Severity of Weekly Symptomatic RP Attacks, Change from Baseline, Mean [3] | Average Severity of Weekly Symptomatic RP Attacks, Change from Baseline, Median [3] | Average Severity of Weekly Symptomatic RP Attacks, Change from Baseline, Mean [7] | Average Severity of Weekly Symptomatic RP Attacks, Change from Baseline, Median [7]
4.67: Average Severity (0-10) of Weekly Symptomatic RP Attacks, Mean [3] | Average Severity (0-10) of Weekly Symptomatic RP Attacks, Median [3] | Average Severity of Weekly Symptomatic RP Attacks (Mean) [7] | Average Severity of Weekly Symptomatic RP Attacks (Median) [7]
6.3%: reduction in severity (more severe disease at baseline (RCS>5.0), n=2 per treatment)
4.56: Average Severity of Weekly RP Attacks (All Attacks), Mean [2] | Average Severity of Weekly RP Attacks (All Attacks), Median [2] | Average Severity of Weekly RP Attacks (All Attacks), Mean [6] | Average Severity of Weekly RP Attacks (All Attacks), Median [6]
7.02: Average Severity of Weekly RP Attacks (All Attacks), Mean [8] | Average Severity of Weekly RP Attacks (All Attacks), Median [8] | Average Severity of Weekly RP Attacks (All Attacks), Mean [10] | Average Severity of Weekly RP Attacks (All Attacks), Median [10]
